In brackets after ≈: the same amount, converted by molar mass. Several values for one entry are separate records, joined by “and”; a condition that tells them apart may be missing. Equal values may be shown once.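 How tested: cells in 96-well plates exposed to compound for 48 hours at five concentrations. GI50 is the concentration that inhibits growth by half. TGI: total growth inhibition.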 Activity calls are given as the source filed them. Cut-off read from the data, not from the text of the source: active = GI50 below about 0.43 µM; inactive = the rest.
Key:
Assay in all cases: NCI tumour cell line growth inhibition, 48 h
DMS 273 small cell lung = test system: DMS 273 small cell lung
NCI-H522 lung = test system: NCI-H522 lung
KM20L2 colon = test system: KM20L2 colon
ACHN renal = test system: ACHN renal
HT29 colon = test system: HT29 colon
SF-268 CNS = test system: SF-268 CNS
CCRF-CEM leukemia = test system: CCRF-CEM leukemia
DU-145 prostate = test system: DU-145 prostate
T-47D breast = test system: T-47D breast

Row | SMILES | TGI (DMS 273 small cell lung) | TGI (NCI-H522 lung) | TGI (KM20L2 colon) [µM] | TGI (ACHN renal) | TGI (HT29 colon) | TGI (SF-268 CNS) | TGI (CCRF-CEM leukemia) | TGI (DU-145 prostate) [µM] | GI50 (NCI-H522 lung) | GI50 (CCRF-CEM leukemia) | GI50 (DU-145 prostate) [µM] | GI50 (ACHN renal) | GI50 (HT29 colon) | GI50 (SF-268 CNS) | TGI (T-47D breast) [µM] | GI50 (DMS 273 small cell lung) [µg/mL] | outcome (KM20L2 colon) | GI50 (T-47D breast) [µM]
1 | O=C(CO)CC(=O)C(=O)Nc1cccc(C(F)(F)F)c1 | > 100 µM | > 100 µM | > 100 | > 100 µM | > 100 µM | > 100 µM | – | – | – | – | – | – | – | – | – | – | – | –
2 | CC1(C)C2=CCCC(=O)[C@@]2(C)CC[C@@H]1O | > 100 µM | > 100 µM | > 100 | > 100 µM | > 100 µM | > 100 µM | > 100 µM | – | – | – | – | – | – | – | – | – | – | –
3 | CCCCCCCCCCCCCP(=O)(OC)OC | 33.1 µM | 26.6 µM | 42.8 | 32.4 µM | 34.1 µM | – | 38.8 µM | – | – | – | – | – | – | – | – | – | – | –
4 | c1ccc(N2CCN(CCCN3CCc4c([nH]c5ccccc45)C3c3cccnc3)CC2)cc1 (stereo unspecified) | > 75.4 µM | > 100 µM | > 100 | > 100 µM | > 100 µM | – | > 100 µM | – | – | – | – | – | – | – | – | – | – | –
5 | CN(CCc1ccccn1)/[N+]([O-])=N/O (tested in a mixture with another compound) | > 100 µM | – | > 100 | > 100 µM | > 100 µM | > 100 µM | > 100 µM | – | – | – | – | – | – | – | – | – | – | –
6 | CCCc1nn(C)c(CCC(=O)N(Cc2ccccc2)Cc2ccccc2)c1CC | – | > 100 µM | > 100 | > 100 µM | > 100 µM | > 100 µM | > 100 µM | – | – | – | – | – | – | – | – | – | – | –
7 | CCN(CC)CCCNc1nccc2c(C)c3[nH]c4ccncc4c(=O)c3cc12 | 11.8 µM | 1.86 µM | 40 | 13 µM | 12.8 µM | 4.46 µM | 8.44 µM | – | – | – | – | – | – | – | – | – | – | –
8 | CCCCCCCCC1C(C)c2c([nH]c3ccccc23)C2C(=O)N(c3ccccc3)C(=O)C21 (stereo unspecified) | 22.2 µM | – | 31.7 | 23.7 µM | 19.1 µM | – | 7.09 µM | – | – | – | – | – | – | – | – | – | – | –
9 | CSC(=NC(=O)c1ccccc1)SCCSC(=NC(=O)c1ccccc1)SC | > 100 µM | > 100 µM | > 100 | > 100 µM | > 100 µM | > 100 µM | > 100 µM | – | – | – | – | – | – | – | – | – | – | –
10 | CC(=O)OC(C)(C)C[N+](=O)[O-] | > 100 µM | > 100 µM | > 100 | > 100 µM | > 100 µM | > 100 µM | > 100 µM | – | – | – | – | – | – | – | – | – | – | –
11 | CC1(C)C=C(N2CCN(C3=CC(C)(C)NC(C)(C)C3)CC2)CC(C)(C)N1 | > 100 µM | > 100 µM | > 100 | > 100 µM | > 100 µM | > 100 µM | > 100 µM | – | – | – | – | – | – | – | – | – | – | –
12 | CCCCCCCCCCCCCC(=O)NO | 27.3 µM | 19.5 µM | 26 | 39.3 µM | 25.3 µM | 26.9 µM | 6.46 µM | 29.6 | – | – | – | – | – | – | – | – | – | –
13 | CC(/C=C1\CCC(CN(C)C)C1=O)c1cccc(Br)c1 (stereo unspecified) | – | 22 µM | 45.4 | 18 µM | 20.7 µM | 43.7 µM | 11.4 µM | – | – | – | – | – | – | – | – | – | – | –
14 | Cc1ccc(-c2nc3ccccc3c(=O)n2NC2OC(CO)C(O)C(O)C2O)cc1 (stereo unspecified) | > 100 µM | > 100 µM | > 100 | > 100 µM | > 100 µM | > 100 µM | > 100 µM | – | – | – | – | – | – | – | – | – | – | –
15 | CC(=O)CCn1[nH]c(=O)c(Cl)c(Cl)c1=O | > 100 µM | – | > 100 | > 100 µM | > 100 µM | > 100 µM | > 100 µM | – | – | – | – | – | – | – | – | – | – | –
16 | O=C(CC1(O)C(=O)Nc2c(Cl)cc(Cl)cc21)c1ccc([N+](=O)[O-])cc1 (stereo unspecified) | > 100 µM | 46.4 µM | > 100 | > 100 µM | > 100 µM | > 100 µM | > 84.3 µM | – | – | – | – | – | – | – | – | – | – | –
17 | Cl.[O-]c1cccc2cccnc12.[O-]c1cccc2cccnc12.[O-]c1cccc2cccnc12.[O-]c1cccc2cccnc12.[Ti+4] | 1.69 µM | 0.256 µM | > 76 | > 100 µM | 6.86 µM | > 100 µM | – | > 100 | 0.12 µM | 0.291 µM | 10.5 | 2.62 µM | 0.914 µM | 0.594 µM | – | – | – | –
18 | C=C1CCCC2OC(OC)CCC12 (stereo unspecified) | > 100 µM | > 100 µM | > 100 | > 100 µM | > 100 µM | > 100 µM | > 100 µM | – | – | – | – | – | – | – | – | – | – | –
19 | O=[N+]([O-])c1cc(C(F)(F)F)cc2n[se]nc12 | 27.3 µM | 6.54 µM | 16.4 | 5.89 µM | 21.9 µM | 15.3 µM | 10.8 µM | 6.66 | – | – | – | – | – | – | 10.4 | – | – | –
20 | COC(=O)/C(=N\Nc1nc(=S)[nH]n1N)C(C#N)c1ccc(Cl)cc1 (stereo unspecified) | > 100 µM | – | > 100 | > 100 µM | > 100 µM | > 100 µM | – | – | – | – | – | – | – | – | – | – | – | –
21 | CCCCCC1CC=CC(NC(=O)OCc2ccccc2)C1/C=C/CCCC1OCCO1 (stereo unspecified) | > 100 µM | > 100 µM | > 100 | > 100 µM | > 100 µM | > 100 µM | > 100 µM | – | – | – | – | – | – | – | – | – | – | –
22 | O=C1C(c2ccccc2)=[N+]([O-])c2cc([N+](=O)[O-])ccc21 | – | 29.1 µM | 47.3 | 56.9 µM | 47.9 µM | 46.9 µM | 40.5 µM | – | – | – | – | – | – | – | – | – | – | –
23 | Cc1cc(=O)n2c(cc3cccccc32)n1 | > 100 µM | > 100 µM | > 100 | > 100 µM | > 100 µM | > 100 µM | > 100 µM | – | – | – | – | – | – | – | – | – | – | –
24 | Nc1nc(N)c(CCCCc2ccccc2)c(/C=C/c2ccc([N+](=O)[O-])cc2)n1 | – | 5.57 µM | 20.6 | 18.2 µM | 16.2 µM | 48.2 µM | 6.01 µM | – | – | – | – | – | – | – | – | – | – | –
25 | C=C1C(=O)O[C@H]2C3OC3(C)CC/C=C(/C(=O)OC)[C@@H](OC(C)=O)[C@H](OC(=O)C3(C)OC3C)[C@H]12 (stereo partly specified) | 3.73 µg/mL | 0.242 µM and 0.241 µM | – | 6.36 µM and 3.12 µM and 2.75 µg/mL | 2.55 µM and 2.3 µM and 4.03 µg/mL | 35.7 µM and 14.9 µg/mL | 0.461 µM and 1.15 µM | 29 | 0.0891 µM and 0.122 µM | 0.173 µM and 0.231 µM | – | 2.07 µM and 434 nM and 0.944 µg/mL | 1.29 µM and 1.06 µM and 1.32 µg/mL | 2.44 µM and 3.42 µM and 4.97 µg/mL | – | 1.1 (≈ 2.37 µM) | inactive | 4.6
26 | CC(O)(c1ccc(OCCC[N+](C)(C)C)cc1)C(C)(O)c1ccc(OCCC[N+](C)(C)C)cc1 (stereo unspecified) | > 100 µM | > 100 µM | > 100 | > 100 µM | > 100 µM | > 100 µM | > 100 µM | – | – | – | – | – | – | – | – | – | – | –
